This is an account of results in patent publication US9901536B2, “Composition for improving skin, containing pomegranate concentrate as active ingredient” (HLSCIENCE CO., LTD., priority 2014, dated 2018).

Values joined by “and” are separate entries in the source; they are usually repeats but may differ in a detail not shown here. Equal values may be shown once.

The subject of one experiment is elastase. In words: Elastase inhibition assay. The experiment is classed as biochemical, human. The following applies: 10 μM. As to the method:
The HDF-N fibroblasts were used to measure the effect of the test solution on elastase activity. For this, the cultured HDF-N cells were treated with 0.2 M Tris-HCl (pH 8.0) containing 0.1% Triton X-100 and lysed by sonication. After centrifuging at 3,000 rpm for 20 minutes and taking the supernatant, the activity of the enzyme was measured by quantifying it and the total protein quantity. For measurement of the elastase activity, the homogenized fibroblasts were treated with 200 μg/mL elastase, 0.2 M Tris-HCl buffer and the sample at different concentrations. After adding 50 mM STANA, a substrate specific for elastase, and incubating at 37° C., absorbance was measured at 405 nm. The degree of elastase activity inhibition was compared with a control group not treated with the test solution. Phosphoramidon was used as a positive control group.

Experiment [1] concerns melanin synthesis in Melan-a cells. In words: Inhibition of melanin synthesis in Melan-a cells. The following applies: 100 μM, 6 days. The experiment is classed as cell-based, mouse. As to the method:
For evaluation of skin-whitening effect, Melan-a cells derived from C57BL/6J (black, a/a) mouse, provided by Dr. Dorothy C Benette (St George's Hospital, London, UK), were used as an immortalized cell line (Bennett D C, Cooper P J, Hart I R. A line of non-tumorigenic mouse melanocyte, syngeneic with the B16 melanoma and requiring a tumor promoter for growth. Int J Cancer 1987; 39: 414-418). The cells were cultured at 37° C. in a 5% carbon dioxide incubator after adding the RPMI 1640 medium containing 10% fetal bovine serum, 50 U/mL penicillin, 50 μg/mL streptomycin, 200 nM phorbol 12-myristate 13-acetate (PMA).
Melan-a cells were seeded onto a 24-well plate with 3×10^4 cells/well. After culturing the cells in an incubator for 24 hours so that the cells adhered well to the plate, the test solution diluted with a culture medium to different concentrations were added to the respective wells. The test sample was treated once in 3 days, for a total of 6 days. […] The cells were lysed with 1 N NaOH and then centrifuged. After separating the supernatant, the total amount of proteins was quantified by measuring absorbance at 405 nm. The melanin content was determined from the protein quantity.

Experiment [2] relates to hyaluronan synthesis in HaCaT cells. In words: Hyaluronan synthesis in keratinocytes by ELISA. The class given is cell-based, human. The following applies: 20 mM, 24 h. As to the method: Human keratinocytes (HaCaT cells, ATCC) were seeded onto the bottom of a culture dish and cultured at 37° C. in a 5% carbon dioxide incubator after adding Dulbecco's modified Eagle's medium (DMEM, Welgene, Korea) containing penicillin (100 IU/mL), streptomycin (10 μg/mL) and 10% FBS.
The skin-moisturizing effect of the samples was evaluated by measuring the degree of hyaluronan synthesis in keratinocytes by ELISA. For this, the HaCaT cells were seeded onto a plate at 5×10^4 cells/well and cultured for 24 hours. 24 hours later, the cells were treated with the test samples diluted with the DMEM cell culture medium (without supplements) and cultured for 24 hours. The cultured cells were recovered and the quantity of hyaluronan was measured by hyaluronan ELISA (R&D Systems, DY3614). The cells adherent to the bottom were washed with PBS and lysed with 1 N NaOH to determine the total amount of proteins. Then, the quantity of hyaluronan per given quantity of proteins was calculated.
The protein quantity was measured using a Bio-Rad DC protein kit according to the Lowry method.
(In general: An ELISA detects its analyte on a solid surface through an enzyme-linked reagent.)

For a further experiment, the system named is MMP-1. In words: Inhibition of UV-induced MMP-1 expression in HDF-N cells. Particulars: UVA 5 J/cm^2, 1 μM. The experiment is classed as cell-based, human. As to the method:
(§1) For testing of wrinkle improvement, normal human primary dermal fibroblasts, neonatal (HDF-N) derived from the human neonatal foreskin were used. The cells were seeded onto the bottom of a culture dish and cultured at 37° C. in a 5% carbon dioxide incubator after adding the fibroblast basal medium (FBM, Lonza, CC-3131) containing 0.1% insulin, 0.1% rhFGF, 0.1% gentamicin and 2% FBS.
The effect of the test solution on UV-induced MMP-1 expression was evaluated in order to evaluate the wrinkle-improving effect of the sample by measuring the activity of matrix metalloproteinase (MMP-1) by immuno-ELISA assay. HDF-N cells were seeded onto a 24-well plate with 2×10^4 cells/well and then cultured for 24 hours. 24 hours later, after discarding the medium and washing with DPBS, 200 μL of DPBS was added and 5 J/cm^2 of UV-A was irradiated. After treating the cells with the sample diluted to an adequate concentration, the cells were cultured for 24 hours. Then, the culture medium was taken and the quantity of MMP-1 was measured with the human total MMP-1 ELISA kit (R&D Systems, DY901). The measured quantity of MMP-1 was calibrated with the total protein quantity.

The subject of experiment [3] is procollagen synthesis in HDF-N cells. In words: Procollagen synthesis (PIP EIA) in HDF-N cells. The experiment is classed as cell-based, human. The following applies: 10 ng/ml, 24 h. As to the method: as §1
In order to measure the effect of promoting procollagen synthesis of the test solution, HDF-N cells were seeded onto a 48-well plate with 1×10^4 cells/well and then cultured for 24 hours. Then, after maintaining a starvation state for 24 hours, the cells were treated with the test solution diluted with the cell culture medium FBM (without supplements) at different concentrations and then cultured for 24 hours. The cultured cells were recovered and the quantity of procollagen was measured using the procollagen type I c-peptide (PIP) EIA kit (Takara, MK101). The cells adherent to the bottom were washed with PBS and lysed with 1 N NaOH to determine the total amount of proteins. Then, the quantity of procollagen per given quantity of proteins was calculated.

Consider `CC(C)C[C@H](NP(=O)(O)O[C@@H]1O[C@@H](C)[C@H](O)[C@@H](O)[C@H]1O)C(=O)N[C@@H](Cc1c[nH]c2ccccc12)C(=O)O` [Phosphoramidon], for which the “elastase activity, % control” value is listed as 74.90 ± 5.962 % control in the experiment with elastase and 74.9 % control in the experiment with elastase (listed as phosphoramidon).

For the compound `OC[C@H]1O[C@@H](Oc2ccc(O)cc2)[C@H](O)[C@@H](O)[C@@H]1O` [Arbutin], the “melanin content, % control” value in experiment [1] was 73.54 ± 5.397 % control; in experiment [1] (listed as arbutin), “melanin synthesis was inhibited”.

For `CC(=O)N[C@H]1C(O)O[C@H](CO)[C@@H](O)[C@@H]1O` (stereo partly drawn) [NAG, N-Acetyl-D-glucosamine], the “hyaluronan, % control” value in experiment [2] was 224.8 % control and 224.85 ± 16.937 % control.

Turning to `CC1=C(/C=C/C(C)=C/C=C/C(C)=C/C(=O)O)C(C)(C)CCC1` [Retinoic acid], the “MMP-1 production, % UV−” value amounted to 171.68 ± 10.422 % UV− in the experiment with MMP-1 and 171.6 % UV− in the experiment on MMP-1 (listed as retinoic acid).

Regarding Transforming growth factor-β [TGF-β], the “procollagen production, % control” value in experiment [3] is 150.8 % control and 150.88 ± 5.366 % control.
